Reference: doi:10.1101/2025.06.05.658145v1 (biorxiv, 2025)

Assays:
[1] = test system: JaTyrA1; assay: NADPH formation at […] nm, Michaelis-Menten fit; format: biochemical, Joinvillea ascendens; conditions: 1 mM NADP+, 50 mM HEPES pH 7.5, 50 mM KCl, 37 °C
[2] = test system: SaTyrA1; assay: NADPH formation at […] nm, Michaelis-Menten fit; format: biochemical, Streptochaeta angustifolia; conditions: 1 mM NADP+, 50 mM HEPES pH 7.5, 50 mM KCl, 37 °C
[3] = test system: AcTyrAnc; assay: NADPH formation at […] nm, Michaelis-Menten fit; format: biochemical, Ananas comosus; conditions: 1 mM NADP+, 50 mM HEPES pH 7.5, 50 mM KCl, 37 °C
[4] = test system: JaTyrAnc; assay: NADPH formation at […] nm, Michaelis-Menten fit; format: biochemical, Joinvillea ascendens; conditions: 1 mM NADP+, 50 mM HEPES pH 7.5, 50 mM KCl, 37 °C
[5] = test system: AcTyrA1; assay: NADPH formation at […] nm, Michaelis-Menten fit; format: biochemical, Ananas comosus; conditions: 1 mM NADP+, 50 mM HEPES pH 7.5, 50 mM KCl, 37 °C
[6] = test system: SaTyrAnc; assay: NADPH formation at […] nm, Michaelis-Menten fit; format: biochemical, Streptochaeta angustifolia; conditions: 1 mM NADP+, 50 mM HEPES pH 7.5, 50 mM KCl, 37 °C
[7] = target: T1, OsTyrA1 (Oryza sativa, UniProt Q5Z9H5); conditions: competitive model; 500 µM arogenate, 1 mM NADP+, pH 7.5, 37 °C
T1 sequence (Q5Z9H5 46-353): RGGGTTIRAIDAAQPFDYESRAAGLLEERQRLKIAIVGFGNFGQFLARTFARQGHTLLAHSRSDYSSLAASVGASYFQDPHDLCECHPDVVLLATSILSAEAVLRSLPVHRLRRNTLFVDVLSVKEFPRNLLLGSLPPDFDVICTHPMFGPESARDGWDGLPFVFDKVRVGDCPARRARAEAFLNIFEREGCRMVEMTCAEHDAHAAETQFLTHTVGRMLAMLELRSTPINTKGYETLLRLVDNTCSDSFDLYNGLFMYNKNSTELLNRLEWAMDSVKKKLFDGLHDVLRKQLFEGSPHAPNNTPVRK

[8] = target: SaTyrAnc; conditions: competitive model; 500 µM arogenate, 1 mM NADP+, pH 7.5, 37 °C
[9] = target: AcTyrAnc; conditions: competitive model; 500 µM arogenate, 1 mM NADP+, pH 7.5, 37 °C
[10] = target: JaTyrA1; conditions: competitive model; 500 µM arogenate, 1 mM NADP+, pH 7.5, 37 °C
[11] = target: SaTyrA1; conditions: competitive model; 500 µM arogenate, 1 mM NADP+, pH 7.5, 37 °C
[12] = target: T2, ZmTyrAnc (Zea mays, UniProt C0PK73); conditions: read-out: IC50 (µM Tyr); 500 uM arogenate, 1 mM NADP+; inhibitor
T2 sequence (C0PK73 50-392): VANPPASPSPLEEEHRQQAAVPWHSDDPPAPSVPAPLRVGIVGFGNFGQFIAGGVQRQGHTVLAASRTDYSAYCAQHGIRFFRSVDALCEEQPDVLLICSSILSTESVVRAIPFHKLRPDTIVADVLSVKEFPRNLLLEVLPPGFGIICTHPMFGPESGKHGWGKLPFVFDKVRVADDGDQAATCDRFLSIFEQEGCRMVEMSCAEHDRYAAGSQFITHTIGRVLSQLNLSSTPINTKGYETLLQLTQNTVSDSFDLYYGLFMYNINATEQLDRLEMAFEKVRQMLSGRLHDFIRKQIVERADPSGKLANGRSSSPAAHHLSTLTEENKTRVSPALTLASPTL

[13] = target: JaTyrAnc; conditions: competitive model; 500 µM arogenate, 1 mM NADP+, pH 7.5, 37 °C
[14] = target: T1, OsTyrA1; conditions: read-out: IC50 (µM Tyr); 500 uM arogenate, 1 mM NADP+; inhibitor
[15] = target: T3, OsTyrAnc (Oryza sativa, UniProt Q5Z6Y1); conditions: read-out: IC50 (µM Tyr); 500 uM arogenate, 1 mM NADP+; inhibitor
T3 sequence (Q5Z6Y1 50-342): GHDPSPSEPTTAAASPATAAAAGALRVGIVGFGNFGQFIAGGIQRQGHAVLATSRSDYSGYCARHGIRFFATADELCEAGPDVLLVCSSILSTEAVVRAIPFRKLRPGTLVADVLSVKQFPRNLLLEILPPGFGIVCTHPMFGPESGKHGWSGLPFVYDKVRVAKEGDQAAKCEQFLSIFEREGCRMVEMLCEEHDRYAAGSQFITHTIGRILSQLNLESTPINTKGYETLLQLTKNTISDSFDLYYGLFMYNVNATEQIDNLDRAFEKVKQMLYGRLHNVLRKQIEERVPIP

[16] = target: AcTyrA1; conditions: competitive model; 500 µM arogenate, 1 mM NADP+, pH 7.5, 37 °C
[17] = target: T2, ZmTyrAnc; conditions: competitive model; 500 µM arogenate, 1 mM NADP+, pH 7.5, 37 °C
[18] = target: T3, OsTyrAnc; conditions: competitive model; 500 µM arogenate, 1 mM NADP+, pH 7.5, 37 °C

Km [1] | Km [2] | Km [3] | Km [4] | Km [5] | Km [6] | SMILES | Ki [7] | Ki [8] | Ki [9] | Ki [10] | Ki [11] | IC50 [12] | Ki [13] | IC50 [14] | IC50 [15] | Ki [16] | Ki [17] | Ki [18]
730 ± 60 µM | 720 ± 90 µM | 1050 ± 170 µM | 1900 ± 240 µM | 750 ± 80 µM | 350 ± 20 µM | N[C@@H](CC1(C(=O)O)C=CC(O)C=C1)C(=O)O (stereo partly drawn) [arogenate] | – | – | – | – | – | – | – | – | – | – | – | –
– | – | – | – | – | – | N[C@@H](Cc1ccc(O)cc1)C(=O)O [tyrosine] | 21 ± 2 µM | 35 ± 8 µM | 76 ± 30 µM | 24 ± 4 µM | 34 ± 23 µM | 850 ± 30 µM | 106 ± 19 µM | 53 ± 5 µM | 280 ± 70 µM | 12 ± 6 µM | 352 ± 13 µM | 78 ± 19 µM
